Source: patent US8258114B2, “Modulation of glucose-6-phosphatase translocase expression” (Isis Pharmaceuticals, Inc., priority 2004, dated 2012)
Oligonucleotides are written 5' to 3', each unit as a sugar letter and its base; * is a phosphorothioate linkage, no mark a phosphodiester; rarer units and linkages stand in square brackets, end groups in braces. Plain capitals give the bases only. e = 2'-O-(2-methoxyethyl) (MOE); [5mC] = 5-methylcytosine; d = 2'-deoxy (DNA)

system: human glucose-6-phosphatase translocase mRNA; experiment: Antisense inhibition of human glucose-6-phosphatase translocase mRNA in T-24 cells, real-time PCR (Table 4); assay type: cell-based; conditions: 100 nM oligonucleotide, LIPOFECTIN, mRNA by real-time PCR
Protocol: The transitional cell bladder carcinoma cell line T-24 was obtained from the American Type Culture Collection (ATCC) (Manassas, Va.). T-24 cells were routinely cultured in complete McCoy's 5A basal media (Invitrogen Life Technologies, Carlsbad, Calif.) supplemented with 10% fetal bovine serum (Invitrogen Life Technologies, Carlsbad, Calif.). Cells were routinely passaged by trypsinization and dilution when they reached approximately 90% confluence. Cells were seeded into 96-well plates (Falcon-Primaria #3872) at a density of approximately 4000-6000 cells/well for use in oligomeric compound transfection experiments. When cells reached 65-75% confluency, they were treated with oligonucleotide. […] This transfection mixture was incubated at room temperature for approximately 0.5 hours. For cells grown in 96-well plates, wells were washed once with 100 μL OPTI-MEMTM-1 and then treated with 130 μL of the transfection mixture. Cells grown in 24-well plates or other standard tissue culture plates are treated similarly, using appropriate volumes of medium and oligonucleotide. Cells are treated and data are obtained in duplicate or triplicate. After approximately 4-7 hours of treatment at 37° C., the medium containing the transfection mixture was replaced with fresh culture medium. Cells were harvested 16-24 hours after oligonucleotide treatment. […] Prior to quantitative PCR analysis, primer-probe sets specific to the target gene being measured were evaluated for their ability to be “multiplexed” with a GAPDH amplification reaction. After isolation the RNA is subjected to sequential reverse transcriptase (RT) reaction and real-time PCR, both of which are performed in the same well. RT and PCR reagents were obtained from Invitrogen Life Technologies (Carlsbad, Calif.). […] The RT reaction was carried out by incubation for 30 minutes at 48° C. Following a 10 minute incubation at 95° C. to activate the PLATINUM® Taq, 40 cycles of a two-step PCR protocol were carried out: 95° C. for 15 seconds (denaturation) followed by 60° C. for 1.5 minutes (annealing/extension). Gene target quantities obtained by RT, real-time PCR were normalized using either the expression level of GAPDH, a gene whose expression is constant, or by quantifying total RNA using RiboGreenTM (Molecular Probes, Inc. Eugene, Oreg.). GAPDH expression was quantified by RT, real-time PCR, by being run simultaneously with the target, multiplexing, or separately. Total RNA was quantified using RiboGreenTM RNA quantification reagent (Molecular Probes, Inc. Eugene, Oreg.). A series of oligomeric compounds was designed to target different regions of human glucose-6-phosphatase translocase, using published sequences cited in Table 1. All compounds in Table 4 are chimeric oligonucleotides (“gapmers”) 20 nucleotides in length, composed of a central “gap” region consisting of 10 2'-deoxynucleotides, which is flanked on both sides ([NT]) by five-nucleotide “wings”. The wings are composed of 2'-O-(2-methoxyethyl) nucleotides, also known as 2'-MOE nucleotides. The internucleoside (backbone) linkages are phosphorothioate throughout the oligonucleotide. All cytidine residues are 5-methylcytidines. The compounds were analyzed for their effect on gene target mRNA levels by quantitative real-time PCR as described in other examples herein, using the following primer-probe set designed to hybridize to human glucose-6-phosphatase translocase: Forward primer: [NT] (incorporated herein as SEQ ID NO: 24) Reverse primer: [NT] (incorporated herein as SEQ ID NO: 25) And the PCR probe was: […] (incorporated herein as SEQ ID NO: 26), where FAM is the fluorescent dye and TAMRA is the quencher dye. Data are from experiments in which T-24 cells were treated with 100 nM of the antisense oligonucleotides of the present invention using LIPOFECTINTM. A reduction in expression is expressed as percent inhibition in Table 4. If present, “N.D.” indicates “not determined”. The control oligomeric compound used was SEQ ID NO: 11. […]

| Sequence | % Inhib [%] |
| --- | --- |
| AACCACACACAGTGCCCCAG (eA*eA*e[5mC]*e[5mC]*eA*d[5mC]*dA*d[5mC]*dA*d[5mC]*dA*dG*dT*dG*d[5mC]*e[5mC]*e[5mC]*e[5mC]*eA*eG; antisense) [ISIS 194853] | 35 |
| AGATAGGGCCAGCGTGCTGC (eA*eG*eA*eT*eA*dG*dG*dG*d[5mC]*d[5mC]*dA*dG*d[5mC]*dG*dT*eG*e[5mC]*eT*eG*e[5mC]; antisense) [ISIS 194832] | 55 |
| AGGCAAAGAATATGTTGACC (eA*eG*eG*e[5mC]*eA*dA*dA*dG*dA*dA*dT*dA*dT*dG*dT*eT*eG*eA*e[5mC]*e[5mC]; antisense) [ISIS 194830] | 68 |
| ATGGCGAGGGTTCCCGTAGT (eA*eT*eG*eG*e[5mC]*dG*dA*dG*dG*dG*dT*dT*d[5mC]*d[5mC]*d[5mC]*eG*eT*eA*eG*eT; antisense) [ISIS 194831] | 54 |
| CACCTATATCCAACTGCGCC (e[5mC]*eA*e[5mC]*e[5mC]*eT*dA*dT*dA*dT*d[5mC]*d[5mC]*dA*dA*d[5mC]*dT*eG*e[5mC]*eG*e[5mC]*e[5mC]; antisense) [ISIS 194837] | 81 |
| CAGGGCACTCATGTAGGAGC (e[5mC]*eA*eG*eG*eG*d[5mC]*dA*d[5mC]*dT*d[5mC]*dA*dT*dG*dT*dA*eG*eG*eA*eG*e[5mC]; antisense) [ISIS 194840] | 51 |
| CAGTTCCCAGATCTGCTGAG (e[5mC]*eA*eG*eT*eT*d[5mC]*d[5mC]*d[5mC]*dA*dG*dA*dT*d[5mC]*dT*dG*e[5mC]*eT*eG*eA*eG; antisense) [ISIS 194851] | 73 |
| CAGTTCCTGCTTGCCGCTCT (e[5mC]*eA*eG*eT*eT*d[5mC]*d[5mC]*dT*dG*d[5mC]*dT*dT*dG*d[5mC]*d[5mC]*eG*e[5mC]*eT*e[5mC]*eT; antisense) [ISIS 194856] | 56 |
| CATTAGTGCCCTGCAGCTGC (e[5mC]*eA*eT*eT*eA*dG*dT*dG*d[5mC]*d[5mC]*d[5mC]*dT*dG*d[5mC]*dA*eG*e[5mC]*eT*eG*e[5mC]; antisense) [ISIS 194828] | 73 |
| CCAGGCAGGCCCCTCCTTTT (e[5mC]*e[5mC]*eA*eG*eG*d[5mC]*dA*dG*dG*d[5mC]*d[5mC]*d[5mC]*d[5mC]*dT*d[5mC]*e[5mC]*eT*eT*eT*eT; antisense) [ISIS 194858] | 71 |
| CCTGCTTGCCGCTCTCACAG (e[5mC]*e[5mC]*eT*eG*e[5mC]*dT*dT*dG*d[5mC]*d[5mC]*dG*d[5mC]*dT*d[5mC]*dT*e[5mC]*eA*e[5mC]*eA*eG; antisense) [ISIS 194844] | 73 |
| CTGTAGCCCCCAAACATGGC (e[5mC]*eT*eG*eT*eA*dG*d[5mC]*d[5mC]*d[5mC]*d[5mC]*d[5mC]*dA*dA*dA*d[5mC]*eA*eT*eG*eG*e[5mC]; antisense) [ISIS 194835] | 59 |
| CTTGGCAATGGTGCTGAAGG (e[5mC]*eT*eT*eG*eG*d[5mC]*dA*dA*dT*dG*dG*dT*dG*d[5mC]*dT*eG*eA*eA*eG*eG; antisense) [ISIS 194847] | 66 |
| GATAGCCTCACTTCAGGTGG (eG*eA*eT*eA*eG*d[5mC]*d[5mC]*dT*d[5mC]*dA*d[5mC]*dT*dT*d[5mC]*dA*eG*eG*eT*eG*eG; antisense) [ISIS 194836] | 58 |
| GATGAACCCCAAATCATCCT (eG*eA*eT*eG*eA*dA*d[5mC]*d[5mC]*d[5mC]*d[5mC]*dA*dA*dA*dT*d[5mC]*eA*eT*e[5mC]*e[5mC]*eT; antisense) [ISIS 194827] | 55 |
| GCTGACTGTCCTTTCTCCTG (eG*e[5mC]*eT*eG*eA*d[5mC]*dT*dG*dT*d[5mC]*d[5mC]*dT*dT*dT*d[5mC]*eT*e[5mC]*e[5mC]*eT*eG; antisense) [ISIS 194859] | 62 |
| GCTGCGCCAGCTGTAGCTCT (eG*e[5mC]*eT*eG*e[5mC]*dG*d[5mC]*d[5mC]*dA*dG*d[5mC]*dT*dG*dT*dA*eG*e[5mC]*eT*e[5mC]*eT; antisense) [ISIS 194843] | 66 |
| GGACTCTCTTCACTCAGCCT (eG*eG*eA*e[5mC]*eT*d[5mC]*dT*d[5mC]*dT*dT*d[5mC]*dA*d[5mC]*dT*d[5mC]*eA*eG*e[5mC]*e[5mC]*eT; antisense) [ISIS 194825] | 73 |

system: human glucose-6-phosphatase translocase mRNA; experiment: Antisense inhibition of human glucose-6-phosphatase translocase mRNA in HepG2 cells (Table 11); assay type: cell-based; design: concentration or dose not given beside the values; conditions: LIPOFECTIN, mRNA by real-time PCR
Protocol: The human hepatoblastoma cell line HepG2 was obtained from the American Type Culture Collection (Manassas, Va.). HepG2 cells were routinely cultured in Eagle's MEM supplemented with 10% fetal bovine serum, 1 mM non-essential amino acids, and 1 mM sodium pyruvate (Invitrogen Life Technologies, Carlsbad, Calif.). Cells were routinely passaged by trypsinization and dilution when they reached approximately 90% confluence. Multiwell culture plates are prepared for cell culture by coating with a 1:100 dilution of type 1 rat tail collagen (BD Biosciences, Bedford, Mass.) in phosphate-buffered saline. The collagen-containing plates were incubated at 37° C. for approximately 1 hour, after which the collagen was removed and the wells were washed twice with phosphate-buffered saline. Cells were seeded into 96-well plates (Falcon-Primaria #353872, BD Biosciences, Bedford, Mass.) at a density of approximately 8,000 cells/well for use in oligomeric compound transfection experiments.
When cells reached 65-75% confluency, they were treated with oligonucleotide. Oligonucleotide was mixed with LIPOFECTIN™ Invitrogen Life Technologies, Carlsbad, Calif.) in Opti-MEM™-1 reduced serum medium (Invitrogen Life Technologies, Carlsbad, Calif.) to achieve the desired concentration of oligonucleotide and a LIPOFECTIN™ concentration of 2.5 or 3 μg/mL per 100 nM oligonucleotide. This transfection mixture was incubated at room temperature for approximately 0.5 hours. For cells grown in 96-well plates, wells were washed once with 100 μL OPTI-MEM™-1 and then treated with 130 μL of the transfection mixture. Cells grown in 24-well plates or other standard tissue culture plates are treated similarly, using appropriate volumes of medium and oligonucleotide. Cells are treated and data are obtained in duplicate or triplicate. After approximately 4-7 hours of treatment at 37° C., the medium containing the transfection mixture was replaced with fresh culture medium. Cells were harvested 16-24 hours after oligonucleotide treatment.
Quantitation of glucose 6-phosphatase translocase mRNA levels was accomplished by real-time quantitative PCR using the ABI PRISM™ 7600, 7700, or 7900 Sequence Detection System (PE-Applied Biosystems, Foster City, Calif.) according to manufacturer's instructions.
Prior to quantitative PCR analysis, primer-probe sets specific to the target gene being measured were evaluated for their ability to be “multiplexed” with a GAPDH amplification reaction. After isolation the RNA is subjected to sequential reverse transcriptase (RT) reaction and real-time PCR, both of which are performed in the same well. RT and PCR reagents were obtained from Invitrogen Life Technologies (Carlsbad, Calif.). […] The RT reaction was carried out by incubation for 30 minutes at 48° C. Following a 10 minute incubation at 95° C. to activate the PLATINUM® Taq, 40 cycles of a two-step PCR protocol were carried out: 95° C. for 15 seconds (denaturation) followed by 60° C. for 1.5 minutes (annealing/extension).
Gene target quantities obtained by RT, real-time PCR were normalized using either the expression level of GAPDH, a gene whose expression is constant, or by quantifying total RNA using RiboGreen™ (Molecular Probes, Inc. Eugene, Oreg.). GAPDH expression was quantified by RT, real-time PCR, by being run simultaneously with the target, multiplexing, or separately. Total RNA was quantified using RiboGreen™ RNA quantification reagent (Molecular Probes, Inc. Eugene, Oreg.).
A series of oligomeric compounds was designed to target different regions of human glucose-6-phosphatase translocase, using published sequences cited in Table 1. All compounds in Table 4 are chimeric oligonucleotides (“gapmers”) 20 nucleotides in length, composed of a central “gap” region consisting of 10 2′-deoxynucleotides, which is flanked on both sides (5′ and 3′) by five-nucleotide “wings”. The wings are composed of 2′-O-(2-methoxyethyl) nucleotides, also known as 2′-MOE nucleotides. […]

| Sequence | % Inhib [%] |
| --- | --- |
| TGGGCTGCCATGGTAGAAAA (eT*eG*eG*eG*e[5mC]*dT*dG*d[5mC]*d[5mC]*dA*dT*dG*dG*dT*dA*eG*eA*eA*eA*eA; antisense) [ISIS 145652] | 50 |
| TTGGCAATGGTGCTGAAGGG (eT*eT*eG*eG*e[5mC]*dA*dA*dT*dG*dG*dT*dG*d[5mC]*dT*dG*eA*eA*eG*eG*eG; antisense) [ISIS 145700] | 24 |

system: mouse glucose-6-phosphatase translocase mRNA; experiment: Antisense inhibition of mouse glucose-6-phosphatase translocase mRNA in primary mouse hepatocytes, 150 nM, LIPOFECTIN (Table 22); assay type: cell-based; conditions: real-time PCR
Outline: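 Primary CD-1 mouse hepatocytes at 65-75% confluency transfected ~4-7 h at 37° C with 150 nM 5-10-5 2′-MOE gapmer phosphorothioate oligonucleotides plus LIPOFECTIN (2.5 or 3 μg/mL per 100 nM). Harvested 16-24 h post-treatment; mRNA by real-time RT-PCR, normalized to GAPDH or RiboGreen total RNA, expressed as percent inhibition.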

| Sequence | % Inhib of mouse glucose-6-phosphatase translocase mRNA levels [%] |
| --- | --- |
| TGGGCTGCCATGGTAGAAAA (eT*eG*eG*eG*e[5mC]*dT*dG*d[5mC]*d[5mC]*dA*dT*dG*dG*dT*dA*eG*eA*eA*eA*eA; antisense) [ISIS 145652] | 36 |
| TTGGCAATGGTGCTGAAGGG (eT*eT*eG*eG*e[5mC]*dA*dA*dT*dG*dG*dT*dG*d[5mC]*dT*dG*eA*eA*eG*eG*eG; antisense) [ISIS 145700] | 1 |
